Patent publication US10307404B1, “Ocular formulations for drug-delivery to the posterior segment of the eye” (priority 2013, dated 2019)
Where “and” joins values, the source holds several entries; their conditions need not be identical. Equal entries are not always repeated. Where two headings read alike, the source gives them in different places.

Key:
[1] = Ocular toxicology study, twice daily 0.3% Tris-based suspension, 30 days; type: in vivo, Dutch-Belted rabbits
[2] = tested on: HUVECs; assay: Inhibition of VEGF-stimulated mitogenesis in HUVECs; type: cell-based; settings: Homo sapiens, HUVEC
[3] = parameters: species or system Dutch-Belted rabbits; settings: rabbit, in vivo
Experimental: The ocular solution of Compound-I comprising cyclodextrin was prepared and tested in different groups of animals.

[4] = Ocular toxicology study, twice daily 0.3% ophthalmic gel drop: ocular tissue concentrations, electroretinograms; type: in vivo, Dutch-Belted rabbits; settings: 0.3% gel drop formulations with and without benzylalkonium chloride
Text: (§1) Retinal function was normal in all test article and vehicle treated groups during full-field electroretinograms performed in rabbits.

[5] = 5-day PK, topical ocular Compound-I in hydroxypropyl-β-cyclodextrin solutions, 30 μL bilateral dose; type: in vivo, Dutch-Belted rabbits; settings: for Average Concentration, Central Retina: LLOQ = 0.0218 μM
Experimental: All doses were administered with ±1 hour of the scheduled dose time, except on day 1 for Groups 1, 4, and 10. The first dose on day 1 was administered at 12:00 PM, and the second dose (for Groups 1 and 10) was administered approximately 4 hours after. This was due to delayed arrival of formulations. All other dosing for these groups was as scheduled. On day 1, Groups 4-8, and 11-12 received one dose (q.d.) for four (4) days. On days 1 through 4, Groups 1-3, and 9-10 received b.i.d. dosing approximately 8 hours apart for four (4) days.
Ocular sampling occurred one hour following the first daily dose on day 5 for all groups, except Groups 5b and 6b, where ocular sampling occurred 24 hours after the first daily dose on day 4.
Blood samples for plasma collection were obtained just prior to scheduled euthanasia for all animals. […] Cornea, central retina, and central choroid samples from groups 1-12 were assayed. Aqueous humor, peripheral retina, and peripheral choroid samples were not assayed.

[6] = parameters: species or system Dutch-Belted rabbits and beagle dogs; settings: Dutch-belted, beagle, rabbit, dog, in vivo
Text: Animals that received topical ocular administration of the tromethamine-based suspension were able to tolerate up to higher level of the active agent concentration in the formulation, as compared to equimolar formulations of the sodium phosphate-based Gel Drop.
Overall, the combination of decreased corneal exposure and corresponding improved ocular tolerability, while simultaneously maintaining or promoting drug delivery to the posterior segment target tissues, along with improved physicochemical stability, will provide greater benefit to patients compared to the ophthalmic Gel Drop formulation.
as §1

[7] = 1- to 5-day PK, topical ocular Compound-I formulations of Table 8A, 30 μL bilateral dose; type: in vivo, Dutch Belted rabbits
Experimental: On day 1, Groups 1, 2, 4-6, 8, 10, 11, 13, 15, and 17 received one dose (q.d.) for either one (1) or four (4) days.
Peripheral retina and peripheral choroid samples were assayed only for Groups 1-8, 12, 14, and 16 per study protocol.

[8] = biological target: KDR (VEGFR-2) (Homo sapiens, UniProt P35968); assay: In vitro inhibition of tyrosine kinases; type: biochemical; settings: 300 nM (170.67 ng/mL)
[9] = Group 2 q.d., 1 hr post day 5 morning dose
[10] = Group 2 q.d., 8 hr post day 5 morning dose
[11] = Group 2 q.d., 24 hr post day 5 morning dose
[12] = Group 3 b.i.d., 1 hr post day 5 morning dose
[13] = Group 3 b.i.d., 24 hr post day 5 morning dose
[14] = Group 4 q.d., 1 hr post day 5 morning dose
[15] = Group 5 q.d., 24 hr post day 1 dose
[16] = Group 6 q.d., 1 hr post day 5 morning dose
[17] = Group 6 q.d., 8 hr post day 5 morning dose
[18] = Group 6 q.d., 24 hr post day 5 morning dose
[19] = Group 7 b.i.d., 1 hr post day 5 morning dose
[20] = Group 11 q.d., 24 hr post day 5 morning dose, n = 1

Sequence of KDR (VEGFR-2) (P35968 20-1356): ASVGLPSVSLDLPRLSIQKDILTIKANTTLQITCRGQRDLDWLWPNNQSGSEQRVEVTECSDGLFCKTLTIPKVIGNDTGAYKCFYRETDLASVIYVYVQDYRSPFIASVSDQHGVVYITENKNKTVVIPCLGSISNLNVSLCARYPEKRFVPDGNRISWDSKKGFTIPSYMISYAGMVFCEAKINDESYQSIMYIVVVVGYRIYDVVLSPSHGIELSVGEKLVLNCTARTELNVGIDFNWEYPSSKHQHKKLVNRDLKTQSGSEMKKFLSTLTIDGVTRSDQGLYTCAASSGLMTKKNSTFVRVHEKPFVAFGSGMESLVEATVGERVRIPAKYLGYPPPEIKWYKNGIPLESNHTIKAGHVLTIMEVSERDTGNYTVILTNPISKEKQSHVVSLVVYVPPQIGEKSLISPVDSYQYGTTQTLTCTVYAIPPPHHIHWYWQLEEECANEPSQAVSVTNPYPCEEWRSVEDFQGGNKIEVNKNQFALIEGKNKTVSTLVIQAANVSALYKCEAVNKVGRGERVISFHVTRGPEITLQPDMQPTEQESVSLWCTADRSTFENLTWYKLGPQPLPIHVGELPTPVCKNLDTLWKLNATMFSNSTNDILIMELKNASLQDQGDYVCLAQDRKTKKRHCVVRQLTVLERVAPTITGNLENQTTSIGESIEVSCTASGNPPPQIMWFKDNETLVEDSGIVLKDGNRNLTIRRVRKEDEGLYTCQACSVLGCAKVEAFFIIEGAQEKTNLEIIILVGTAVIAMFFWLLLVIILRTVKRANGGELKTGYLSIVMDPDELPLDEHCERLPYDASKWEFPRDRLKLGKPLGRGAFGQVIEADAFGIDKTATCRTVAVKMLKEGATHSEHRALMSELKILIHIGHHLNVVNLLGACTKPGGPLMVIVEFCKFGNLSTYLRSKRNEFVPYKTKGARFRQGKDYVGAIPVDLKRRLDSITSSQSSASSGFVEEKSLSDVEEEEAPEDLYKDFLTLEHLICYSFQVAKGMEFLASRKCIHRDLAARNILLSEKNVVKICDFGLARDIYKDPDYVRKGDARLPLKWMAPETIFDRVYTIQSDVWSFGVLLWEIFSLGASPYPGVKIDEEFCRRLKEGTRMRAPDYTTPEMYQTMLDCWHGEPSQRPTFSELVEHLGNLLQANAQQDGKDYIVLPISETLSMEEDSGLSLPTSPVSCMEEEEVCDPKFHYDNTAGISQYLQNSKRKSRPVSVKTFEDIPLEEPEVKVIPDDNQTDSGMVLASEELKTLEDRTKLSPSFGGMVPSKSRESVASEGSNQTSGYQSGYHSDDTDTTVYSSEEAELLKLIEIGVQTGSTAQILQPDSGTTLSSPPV

Cl.NC(=O)c1c(OCc2c(F)cc(Br)cc2F)nsc1NC(=O)NCCCCN1CCCC1 [Compound-I, 3-[(4-bromo-2,6-difluorophenyl)methoxy]-5-[[[[4-(1-pyrrolidinyl)butyl]amino]carbonyl]amino]-4-isothiazolecarboxamide hydrochloride]
eyes at microscopic evaluation ([1]; 0.3% w/v Tris-based suspension twice daily for 30 days): considered normal
tolerability, clinical ophthalmic examinations ([1]; rabbit, in vivo): well tolerated
IC50 [2]: 14.1 nM and 0.008 µg/mL
tolerability [3]: well-tolerated
Mean ocular tissue concentration, peripheral retina [4]: 0.150 to 0.3091 µM
Average Concentration, Central Choroid ([5]; Group 5a q.d., 1 hr after first daily dose on day 5, n = 1): *0.199 μM
Average Concentration, Central Retina ([5]; Group 5b q.d., 24 hr after first daily dose on day 4): <LLOQ
Average Concentration, Central Retina ([5]; Group 6b q.d., 24 hr after first daily dose on day 4): <LLOQ
Average Concentration, Central Choroid ([5]; Group 6b q.d., 24 hr after first daily dose on day 4, n = 1): *0.218 μM
Average Concentration, Central Choroid ([5]; Group 7 q.d., 1 hr after first daily dose on day 5, LLOQ = 0.174 μM): <LLOQ
Average Concentration, Central Choroid ([5]; Group 8 q.d., 1 hr after first daily dose on day 5, n = 1): *0.210 μM
Average Concentration, Central Choroid ([5]; Group 9 b.i.d., 1 hr after first daily dose on day 5, n = 1): *0.287 μM
cornea concentration above which ocular side effects were more consistently observed [6]: exceeded 100 μM
concentration at 24 h ([7]; Dutch Belted, rabbit, cornea, topical, 30 μL bilateral, Group 2 q.d., 24 hr post day 5 morning dose): 29.7 µM
Average Concentration, Peripheral Choroid ([7]; Group 1 q.d., 0.5 hr post day 1 dose, LLOQ = 0.0349 μM): <LLOQ
Average Concentration, Central Retina ([7]; Group 1 q.d., 1 hr post day 1 dose, LLOQ = 0.0181 μM): <LLOQ
Average Concentration, Peripheral Choroid ([7]; Group 1 q.d., 1 hr post day 1 dose, n = 1): *0.0856 μM
Average Concentration, Central Retina ([7]; Group 1 q.d., 24 hr post day 1 dose, LLOQ = 0.0181 μM): <LLOQ
concentration at 24 h ([7]; Group 1 q.d., 24 hr post day 1 dose, read-out: Average Concentration, Cornea): 6.94 µM
Average Concentration, Aqueous Humor [7, 9]: 0.00996 µM
Average Concentration, Peripheral Choroid [7, 9]: 0.737 µM
Average Concentration, Central Choroid ([7]; Group 2 q.d., 1 hr post day 5 morning dose, n = 1): *0.207 μM
concentration at 24 h ([7]; Group 2 q.d., 1 hr post day 5 morning dose, read-out: Average Concentration, Cornea): 112 µM
Average Concentration, Aqueous Humor [7, 10]: 0.0165 µM
Average Concentration, Peripheral Choroid [7, 10]: 0.687 µM
Average Concentration, Central Choroid ([7]; Group 2 q.d., 8 hr post day 5 morning dose, n = 1): *0.237 μM
concentration at 24 h ([7]; Group 2 q.d., 8 hr post day 5 morning dose, read-out: Average Concentration, Cornea): 32.7 µM
Average Concentration, Aqueous Humor [7, 11]: 0.00336 µM
Average Concentration, Peripheral Choroid [7, 11]: 1.14 µM
Average Concentration, Peripheral Retina [7, 11]: 0.380 µM
Average Concentration, Central Retina ([7]; Group 2 q.d., 24 hr post day 5 morning dose, LLOQ = 0.0181 μM): <LLOQ
Average Concentration, Central Choroid ([7]; Group 2 q.d., 24 hr post day 5 morning dose, n = 1): *0.205 μM
Average Concentration, Aqueous Humor [7, 12]: 0.0142 µM
Average Concentration, Central Choroid [7, 12]: 0.255 µM
concentration at 24 h ([7]; Group 3 b.i.d., 1 hr post day 5 morning dose, read-out: Average Concentration, Cornea): 151 µM
Average Concentration, Aqueous Humor [7, 13]: 0.00774 µM
Average Concentration, Peripheral Retina [7, 13]: 0.0597 µM
concentration at 24 h ([7]; Group 3 b.i.d., 24 hr post day 5 morning dose, read-out: Average Concentration, Cornea): 82.1 µM
Average Concentration, Aqueous Humor [7, 14]: 0.00996 µM
Average Concentration, Central Retina [7, 14]: 0.0431 µM
Average Concentration, Peripheral Choroid [7, 14]: 0.629 µM
Average Concentration, Peripheral Retina [7, 14]: 0.0883 µM
concentration at 24 h ([7]; Group 4 q.d., 1 hr post day 5 morning dose, read-out: Average Concentration, Cornea): 78.7 µM
Average Concentration, Aqueous Humor ([7]; Group 5 q.d., 0.5 hr post day 1 dose, LLOQ = 0.000903 μM): <LLOQ
Average Concentration, Central Retina ([7]; Group 5 q.d., 0.5 hr post day 1 dose, LLOQ = 0.0181 μM): <LLOQ
Average Concentration, Peripheral Choroid ([7]; Group 5 q.d., 0.5 hr post day 1 dose, LLOQ = 0.0349 μM): <LLOQ
concentration at 24 h ([7]; Group 5 q.d., 0.5 hr post day 1 dose, read-out: Average Concentration, Cornea): 21.0 µM
Average Concentration, Peripheral Retina ([7]; Group 5 q.d., 1 hr post day 1 dose): 0.0253 µM
Average Concentration, Peripheral Retina ([7]; Group 5 q.d., 2 hr post day 1 dose): 0.0253 µM
concentration at 24 h ([7]; Group 5 q.d., 8 hr post day 1 dose, read-out: Average Concentration, Cornea): 7.74 µM
Average Concentration, Aqueous Humor [7, 15]: 0.00228 µM
Average Concentration, Peripheral Choroid [7, 15]: 0.116 µM
Average Concentration, Central Retina ([7]; Group 5 q.d., 24 hr post day 1 dose, LLOQ = 0.0181 μM): <LLOQ
Average Concentration, Peripheral Retina ([7]; Group 5 q.d., 24 hr post day 1 dose, n = 1): *0.0103 μM
concentration at 24 h ([7]; Group 5 q.d., 24 hr post day 1 dose, read-out: Average Concentration, Cornea): 2.43 µM
Average Concentration, Aqueous Humor [7, 16]: 0.00323 µM
Average Concentration, Central Choroid [7, 16]: 0.319 µM
Average Concentration, Central Retina [7, 16]: 0.0463 µM
Average Concentration, Peripheral Choroid [7, 16]: 0.311 µM
Average Concentration, Peripheral Retina [7, 16]: 0.0634 µM
concentration at 24 h ([7]; Group 6 q.d., 1 hr post day 5 morning dose, read-out: Average Concentration, Cornea): 21.8 µM
Average Concentration, Aqueous Humor [7, 17]: 0.00742 µM
Average Concentration, Central Retina [7, 17]: 0.0537 µM
Average Concentration, Peripheral Choroid [7, 17]: 0.257 µM
concentration at 24 h ([7]; Group 6 q.d., 8 hr post day 5 morning dose, read-out: Average Concentration, Cornea): 9.10 µM
Average Concentration, Aqueous Humor [7, 18]: 0.00122 µM
Average Concentration, Peripheral Choroid [7, 18]: 0.343 µM
Average Concentration, Peripheral Retina [7, 18]: 0.0533 µM
concentration at 24 h ([7]; Group 6 q.d., 24 hr post day 5 morning dose, read-out: Average Concentration, Cornea): 2.33 µM
Average Concentration, Aqueous Humor [7, 19]: 0.00648 µM
Average Concentration, Central Choroid [7, 19]: 0.514 µM
Average Concentration, Central Retina [7, 19]: 0.0469 µM
Average Concentration, Peripheral Choroid [7, 19]: 0.744 µM
Average Concentration, Peripheral Retina [7, 19]: 0.0819 µM
Average Concentration, Aqueous Humor [7, 20]: *0.00205 μM
Average Concentration, Central Choroid [7, 20]: *0.179 μM
Average Concentration, Central Retina [7, 20]: *0.0185 μM
VEGFR-2 kinase function [8]: completely inhibited
